Results from US20260085101A1, “NOVEL PLATELET DERIVED GROWTH FACTOR PEPTIDE MIMETIC” (THE UNIVERSITY OF SYDNEY, priority 2022, published 2026).

Experiments:
Format in all cases: cell-based
[1] = tested on: C3H10T½ mouse embryonic fibroblasts; test: EdU proliferation assay (flow cytometry); conditions: C3H10T½ cells; 10 μM AG1296 with 20 ng/ml PDGF−BB
Protocol: FIG. 8. Proliferation of C3H10T½ Cells Following Treatment with PDGF and Novel PDGF Mimetic Peptides. Cultured C3H10T½ mouse embryonic fibroblast cells were treated with 20 ng/ml recombinant PDGF−AB or PDGF−BB protein ligands, and 2 μg/ml of novel PDGF mimetics JC5 or JC5a for 24 hr, in the presence of 1% fetal bovine serum (FBS). Percent proliferating cell was determined after a 2 hr pulse with nucleotide analogue EdU at the end of the incubation period. […] Co-treatment of protein/peptides with 10 μM of PDGF receptor antagonist, AG1296, confirmed that PDGF-BB-stimulated proliferation occurred via the PDGF ligand/receptor pathway. […] Error bars represent ±SD, n=3. Statistical analysis was using One-Way Anova: * p<0.05; ** p<0.01; *** p<0.001; **** p<0.0001. The mitotic effects of PDGF mimetic peptides JC5 and JC5a were tested using cultured C3H10T½ mouse embryonic fibroblasts. Proliferation was assayed after a pulse of nucleotide analogue 5-ethynyl-2′-deoxyuridine (EdU) and fluorescent detection using flow cytometry. Cells were treated with 20 ng/ml PDGF−BB or PDGF−AB, and 2 μg/ml of peptides JC5 or JC5a, in the presence of 1% fetal bovine serum (FBS) and DMEM for 24 hr. 10% FBS was used as a positive control, and co-treatments with specific PDGF receptor antagonist, AG1296, was used to ascertain whether proliferation occurred via the PDGF ligand/receptor pathway. Assays were performed in biological triplicate.

[2] = tested on: C2C12 mouse myoblasts; test: Scratch migration (chemotaxis) assay on C2C12 cells
Protocol: FIG. 2. Migration of C2C12 Mouse […] Cells Treated with PDGF and peptides JC5 and JC5a. C2C12 mouse fibroblast cells migrate across the scratch over 24 hours. Cells were treated with 10 ng/ml PDGF−AB (n=6), PDGF−BB (n=6), and 1 μg/ml of novel PDGF mimetic JC5 (n=6) and JC5a (n=3). […] There was also no statistically significant difference between the PDGF mimetic peptides and PDGF−AB and −BB positive controls. Error bars represent ±SD. The function of Compounds Ia (also referred to herein as JC5) and Ib (also referred to herein as JC5a) has been tested in vitro on the continuous cell line, C2C12 mouse myoblasts. In these in vitro assays recombinant PDGF−AB and −BB have been used as positive controls along with a serum starved no treatment control and the PDGF receptor inhibitor AG1296 co-treated with PDGF−AB as a negative control. The in vitro assays were designed to assess the major known functions of PDGF whilst also considering functions that are relevant to its in vivo applications. These functions were chemotaxis, collagen contraction, vascular tube formation and activation of the PDGF receptors via phosphorylation of Akt and Erk. Chemotaxis was assessed by making a scratch through a 2D culture of C2C12 cells following treatment with the four controls and the peptides JC5 and JC5a. They were then incubated for 24 hours at 37° C. Migration of the cells across the scratch at the conclusion of the incubation was measured and compared to the relevant controls described above. PDGF is a well-established mediator of chemotaxis and is expected to increase migration of the cells across the scratch over the course of 24 hours post treatment.

[3] = tested on: C2C12 mouse myoblasts; test: Collagen gel contraction assay with C2C12 cells
From the text: FIG. 3. Collagen Contraction of C2C12 Mouse Fibroblasts Treated with PDGF and peptides JC5 and JC5a. […] Error bars represent ±SD, n=8/4. The function of Compounds Ia (also referred to herein as JC5) and Ib (also referred to herein as JC5a) has been tested in vitro on the continuous cell line, C2C12 mouse myoblasts. In these in vitro assays recombinant PDGF−AB and −BB have been used as positive controls along with a serum starved no treatment control and the PDGF receptor inhibitor AG1296 co-treated with PDGF−AB as a negative control. The in vitro assays were designed to assess the major known functions of PDGF whilst also considering functions that are relevant to its in vivo applications. These functions were chemotaxis, collagen contraction, vascular tube formation and activation of the PDGF receptors via phosphorylation of Akt and Erk. Collagen contraction is an important function during wound healing of many tissues including the heart. This can be simulated in vitro using a collagen gel contraction assay. This was assessed using C2C12 cells treated with the positive controls 10 ng/ml recombinant PDGF-BB and PDGF−AB, negative control 10 μM AG1296 co-treated with 10 ng/ml recombinant PDGF−AB, a serum starved no treatment control and 1 μg/ml of the peptides JC5 and JC5a. C2C12 mouse myoblasts were seeded in a 3D collagen gel crosslinked with NaOH and incubated at 37° C. for 24 hours following treatment with the four controls and peptides JC5 and JC5a.

[4] = tested on: primary human coronary artery endothelial cells (HCAECs); test: Vascular tube forming assay on Geltrex; conditions: 24 hours
Protocol: FIG. 4. Tube formation of Human Coronary Artery Endothelial Cells Treated with PDGF and PDGF Mimetic Peptide JC5. Human coronary artery endothelial cells treated with 50 ng/ml of PDGF−AB and PDGF−BB produced longer tubes than untreated cells and cells treated with the PDGF receptor inhibitor AG1296+PDGF−AB. […] Error bars represent ±SD, n=3/group.
PDGF has a well-established role in angiogenesis in vivo. To simulate this function in vitro a vascular tube forming assay on primary human coronary artery endothelial cells (HCAECs) was carried out. Cells were seeded on top of 3D growth factor reduced Geltrex basement membrane extract and incubated for 24 hours following treatment with the PDGF−AB, PDGF-BB, no treatment control, AG1296+PDGF−AB negative control, and peptides JC5 and JC5a. Over the course of 24 hours the cells form tubes throughout the gel. PDGF is reported to facilitate tube formation of endothelial cells in in vitro 3D assays.
Cells treated with 50 ng/ml of PDGF−AB, PDGF-BB, and 5 μg/ml of JC5 produced longer more uniform tubes than untreated cells and cells treated with the negative control 10 μM PDGF receptor inhibitor AG1296 co-treated with 50 ng/ml PDGF−AB (FIG. 4). The positive controls PDGF−AB and PDGF−BB produced tubes that were 560.7 μm (±53.93) and 616.3 μm (±39.07), respectively. […] The no treatment control and AG1296+PDGF−AB negative control produced tubes that were 305 μm and 307.7 μm, respectively. […] In summary, JC5 has similar vascular tube forming ability to recombinant human PDGF−AB and PDGF-BB.

[5] = molecular target: T1, PDGF receptor (Mus musculus, UniProt P05622); test: Western blot for phosphorylation of ERK in C2C12 cells (PDGF receptor activation); conditions: 10 ng/ml PDGF, 1 μg/ml peptide, vs no treatment and AG1296+PDGF−AB controls
T1 construct: Phosphorylation of ERK following treatment of C2C12 Cells with PDGF and JC5; endogenous in cells; host or cells: C2C12 mouse myoblasts
Protocol: FIG. 5. Phosphorylation of ERK following treatment of C2C12 Cells with PDGF and JC5. Western blots for total (ERK) and phosphorylated ERK (pERK) at 42 and 44 kDa show an increase in phosphorylation following treatment with 10 ng/ml PDGF−BB and 1 μg/ml of JC5. FIG. 6. Phosphorylation of ERK following treatment of C2C12 Cells with PDGF and JC5a. Western blots for total (ERK) and phosphorylated ERK (pERK) at 42 and 44 kDa show an increase in phosphorylation 10 minutes post treatment with 10 ng/ml PDGF−BB and 1 μg/ml of novel mimetic peptide JC5a. JC5a maintained this increased phosphorylation of ERK at 30 minutes post treatment. PDGF receptor activation takes place via autophosphorylation of tyrosine […] residues at key sites throughout the intracellular domain. Autophosphorylation engages different signaling pathways, including ERK (MAPK) which participates in proliferation, cell survival, angiogenesis, and chemotactic activity of cells. Phosphorylation of ERK indicates successful activation of the PDGF receptor.

T1 sequence (P05622 32-1098): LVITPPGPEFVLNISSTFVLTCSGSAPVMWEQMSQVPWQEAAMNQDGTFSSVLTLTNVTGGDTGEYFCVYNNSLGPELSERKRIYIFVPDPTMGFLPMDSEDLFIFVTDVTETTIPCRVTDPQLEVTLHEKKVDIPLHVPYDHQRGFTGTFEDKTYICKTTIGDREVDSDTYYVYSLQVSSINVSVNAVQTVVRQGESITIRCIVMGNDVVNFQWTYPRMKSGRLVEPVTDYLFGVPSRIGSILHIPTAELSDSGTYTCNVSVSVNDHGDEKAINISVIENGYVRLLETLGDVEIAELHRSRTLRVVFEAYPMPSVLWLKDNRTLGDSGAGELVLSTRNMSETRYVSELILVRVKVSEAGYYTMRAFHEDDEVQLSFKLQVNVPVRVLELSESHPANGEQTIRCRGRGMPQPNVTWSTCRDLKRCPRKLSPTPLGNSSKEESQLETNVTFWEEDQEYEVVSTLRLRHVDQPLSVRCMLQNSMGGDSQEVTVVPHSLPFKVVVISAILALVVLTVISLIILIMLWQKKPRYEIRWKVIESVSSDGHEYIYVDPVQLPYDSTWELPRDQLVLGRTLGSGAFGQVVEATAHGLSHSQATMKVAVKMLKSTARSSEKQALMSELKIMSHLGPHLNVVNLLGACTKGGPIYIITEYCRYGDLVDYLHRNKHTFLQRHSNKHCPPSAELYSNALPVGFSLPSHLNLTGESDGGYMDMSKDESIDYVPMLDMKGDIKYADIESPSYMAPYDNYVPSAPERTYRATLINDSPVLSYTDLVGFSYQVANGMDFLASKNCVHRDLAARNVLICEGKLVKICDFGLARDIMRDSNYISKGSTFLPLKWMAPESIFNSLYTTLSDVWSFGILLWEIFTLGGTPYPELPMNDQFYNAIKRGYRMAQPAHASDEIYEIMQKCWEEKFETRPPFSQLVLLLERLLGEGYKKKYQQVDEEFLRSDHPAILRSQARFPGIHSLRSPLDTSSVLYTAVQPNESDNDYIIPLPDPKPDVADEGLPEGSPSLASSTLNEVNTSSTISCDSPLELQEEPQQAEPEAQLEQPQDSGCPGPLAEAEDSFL

Compound | effect of AG1296 co-treatment on PDGF−BB-stimulated EdU uptake [1] | migration of cells across the scratch ([2]; 24 hours at 37° C., 10 ng/ml PDGF, 1 μg/ml peptides, mean (±SD)) [%] | increase in migration compared to the negative control (Mean Diff) ([2]; 24 hours, vs AG1296+PDGF−AB negative control) [%] | increase in migration compared to the no treatment control (Mean Diff.) ([2]; 24 hours, vs no treatment control) [%] | collagen gel contracted to % of its initial surface area ([3]; 24-hour incubation, 10 ng/ml PDGF, 1 μg/ml peptides, 10 μM AG1296, mean (±SD)) [%] | difference in collagen gel area versus negative control AG1296 co-treated with PDGF−AB (Mean Diff.) ([3]; 24 hours, vs negative control (55.25%)) [%] | difference in collagen gel area versus no treatment control (Mean Diff.) ([3]; 24 hours, vs no treatment control (41.27%)) [%] | tube length ([4]; 50 ng/ml PDGF, 5 μg/ml JC5, 10 μM AG1296, mean (±SD)) [μm] | increased tube length compared to the negative control (Mean Diff.) ([4]; vs AG1296+PDGF−AB (307.7 μm)) [μm] | increased tube length compared to the no treatment control (Mean Diff.) ([4]; vs no treatment control (305 μm)) [μm] | phosphorylation of ERK (pERK) [5]
COc1cc2ncc(-c3ccccc3)nc2cc1OC [AG1296, reference compound] | significantly inhibited | – | – | – | – | – | – | – | – | – | –
PDGF−BB: recombinant human PDGF-BB protein ligand, positive control | – | 75.02 | 58.45 | 54.70 | 23.42 | 31.83 | 17.86 | 616.3 | 308.7 | 311.3 | phosphorylation of ERK (pERK) can be seen
